Several values for one entry are separate records, joined by “and”; a condition that tells them apart may be missing. Identical values can stand only once. Entries after “also recorded” stand apart in the source; their conditions may differ.
What was measured:
[1] = test system: articular cartilage injury of the knee in rabbits; assay: Macroscopic degree of healing in rabbit articular cartilage injury model; type: in vivo; conditions: for Degree of healing Distal trochlear sulcus / Degree of healing Medial trochlear ridge / Degree of healing Proximal trochlear sulcus: individual rabbits, 3 weeks after operation; for average value of quantified data (degree of healing, points): − = 0 to +++ = 3 points
Description: The cartilage regeneration-promoting effect of hydroxytyrosol obtained in Production Example 1 was investigated using a rabbit articular cartilage injury model prepared experimentally.
Six female and six male rabbits (New Zealand white, 16 weeks old when introduced, body weight: from 2.00 kg to 2.55 kg) were habituated for one week under the conditions of one rabbit per cage, temperature: from 23° C. to 25° C., relative humidity: from 50% to 60%, a light/dark cycle of 12 h, 12 times air changes per hour). During this period, animals were fed with feed, which is sold commercially, and sterile tap water ad libitum.
After the period, rabbits were divided at random into two groups so that each group contains three female and three male rabbits. One group was designated as a control group and the other as a hydroxytyrosol administration group (hereinafter, HT group).
(§1) The rabbit articular cartilage injury model was prepared based on the method of Hashida et. al. (See, Macromolecular Bioscience, 3, (2003) 596-603), and Tamai et. al. (See, Carbohydrate Polymers, 48, (2002) 369-378, and Carbohydrate Polymers, 54, (2003) 251-262).
(§2) Initially, each animal was anesthetized by injecting pentobarbital sodium (40 mg/kg) intraperitoneally. Next, hairs at the knee joint of the left hind limb of the animal were clipped and disinfected with 0.5% chlorhexidine gluconate solution and 70% ethanol solution. Then, an incision was made on the skin on the lateral portion of the knee joint from the central part of the femur toward the tibial tuberosity. The articular capsule was exposed and incised. Further, the knee joint was exposed completely by dislocating the patella toward the medial side. Three holes of 2 mm size in diameter and 4 mm in depth were made by using a handdrill one at the medial trochlear ridge and two at the trochlear sulcus of the femur. The incised portion was washed with sterile saline solution and the articular capsule, and at the same time, the subcutaneous tissues and the skin were sutured with a synthetic absorbent thread and with nylon thread, respectively. During one week after the operation, the sutured portion of the skin was disinfected by povidone-iodine once a day and 10 mg/kg of oxytetracycline hydrochloride was subcutaneously administered twice a day.
(§3) After the formation of injury to articular cartilage, for the HT group, the product containing 20% by mass of hydroxytyrosol obtained in Production Example 1 was dissolved in tap water and administered using a water bottle at a rate of 500 mg/kg (100 mg/kg of hydroxytyrosol) per day for 21 days. After making sure that all of the water containing the drug was taken in, rabbits were fed with sterile tap water. The control was fed with sterile tap water ad libitum.
After the experimental period, all animals were euthanized by overdose using an intravenous injection of pentobarbital sodium (80 mg/kg). Then, knee joints were incised, and the conditions of joint cartilages were macroscopically observed. The degree, to which the injury of cartilage was healed, was evaluated based on the following standards.
• −: Degree of healing is less than 50% • +: Degree of healing is from 50% to 60% • ++: Degree of healing is from 60% to 80% • +++: Degree of healing is from 80% to 100%
Further, the above evaluation was assigned numbers: (−) was assigned with 0 point (+) was assigned with 1 point, (++) was assigned with 2 points, and (+++) was assigned with 3 points. The degree of healing of articular cartilage was expressed numerically, and Mann-Whitney's U test was performed between the control group and the HT group.
(§4) In the same way as in Example 1, the cartilage regeneration-promoting effects were investigated with respect to hydroxytyrosol (100 mg/kg per day, HT group) and with respect to glucosamine hydrochloride (800 mg/kg per day, hereinafter, GAH group) for comparison. The control group was set in the same way as in Example 1.

[2] = test system: lateral vastus muscles and femoral biceps muscles; assay: Muscle weight ratio (injured side vs opposite side) in rabbit articular cartilage injury model; type: in vivo; conditions: for Muscle weight ratio Femoral biceps muscle, Mean / Muscle weight ratio Lateral vastus muscle, Mean: group mean, 6 rabbits; for Muscle weight ratio Femoral biceps muscle / Muscle weight ratio Lateral vastus muscle: individual rabbits, injured side vs opposite side
Description: as §1, §2, §3
For each animal, left and right lateral vastus muscles and femoral biceps muscles were collected, and weights were measured. The muscle weight ratio was calculated by comparing the side, in which cartilage injury was made, with the opposite side, and Student's t-test was performed between the control group and the HT group.
as §4

[3] = test system: articular cartilage injury of the knee in rabbits; assay: Histopathological examination (hematoxylin/eosin) of injured knee articular cartilage; type: in vivo, rabbit; conditions: hematoxylin/eosin staining
Description: as §1, §2, §3
For each animal, femur was collected and fixed by a 10% neutral buffered forrnalin solution. […]

proteoglycan = assay: Image analysis of Safranin O staining (proteoglycan) of knee articular cartilage; type: in vivo, rabbit
Description: as §1, §2, §3
The specimens stained with Safranin O and with Alcian blue were prepared in the same way as mentioned above and subjected to image analysis. The 200 times magnified images of specimens were scanned into the computer using a digital camera (Olympus DP70, manufactured by Olympus Corporation). Then, two locations (20,000 pixels) were randomly sampled, and the density of the site stained in a specific color (site stained with Safranin O:
corresponding to proteoglycan, site stained with Alcian blue: corresponding to glycosaminoglycan) was measured. For the obtained values, Student's t-test was performed between the control group and the HT group.
as §4

[4] = Example 2, HT 100 mg/kg per day, GAH 800 mg/kg per day, hydrochloride, female rabbits
[5] = Example 2, HT 100 mg/kg per day, GAH 800 mg/kg per day, hydrochloride, male rabbits
[6] = Example 2, hydrochloride, female rabbits
[7] = Example 2, hydrochloride, male rabbits
[8] = Example 2, injured site of cartilage
[9] = Example 1, 100 mg/kg of hydroxytyrosol per day for 21 days, 100 mg/kg
[10] = Example 2, HT 100 mg/kg per day, GAH 800 mg/kg per day, female rabbits
[11] = Example 2, HT 100 mg/kg per day, GAH 800 mg/kg per day, male rabbits

## Cl.N[C@H]1C(O)O[C@H](CO)[C@@H](O)[C@@H]1O (stereo partly drawn) [GAH group, glucosamine hydrochloride, reference compound]
[1]; Example 2, HT p<0.01, GAH p<0.05, hydrochloride
  cartilage healing / regeneration compared with the control group: promoted significantly
[1]; Example 2, HT p<0.01, GAH p<0.05, listed as glucosamine hydrochloride, hydrochloride
  cartilage healing / regeneration compared with the control group: promoted the regeneration of cartilage
[1]; [4]
  Degree of healing Distal trochlear sulcus: ++ (Degree of healing is from 60% to 80%); also recorded: +++ (Degree of healing is from 80% to 100%)
  Degree of healing Medial trochlear ridge: +++ (Degree of healing is from 80% to 100%)
  Degree of healing Proximal trochlear sulcus: ++ (Degree of healing is from 60% to 80%); also recorded: +++ (Degree of healing is from 80% to 100%)
[1]; [5]
  Degree of healing Distal trochlear sulcus: ++ (Degree of healing is from 60% to 80%); also recorded: + (Degree of healing is from 50% to 60%)
  Degree of healing Medial trochlear ridge: +++ (Degree of healing is from 80% to 100%); also recorded: ++ (Degree of healing is from 60% to 80%)
  Degree of healing Proximal trochlear sulcus: + (Degree of healing is from 50% to 60%); also recorded: +++ (Degree of healing is from 80% to 100%)
[1]; Example 2, control group 5.33
  average value of quantified data (degree of healing, points): 7.17
[2]; Example 2
  muscle weight of the femoral biceps muscle (in words): marked decrease
  muscle weight of the lateral vastus muscle (in words): slight decrease
[2]; Example 2, control 83.80
  Muscle weight ratio Femoral biceps muscle, Mean: 83.62%
[2]; Example 2, control 91.91
  Muscle weight ratio Lateral vastus muscle, Mean: 92.03%
[2]; [6]
  Muscle weight ratio Femoral biceps muscle: 78.13% and 86.21% and 65.10%
  Muscle weight ratio Lateral vastus muscle: 82.24% and 96.46% and 90.85%
[2]; [7]
  Muscle weight ratio Femoral biceps muscle: 92.37% and 86.12% and 93.81%
  Muscle weight ratio Lateral vastus muscle: 98.02% and 89.59% and 94.99%
[3]; Example 2
  histopathological findings at the site at which injury was created: almost the same findings as those of the HT group
proteoglycan; [8]
  density at the site stained with Safranin O (proteoglycan), injured site of cartilage, vs control: significant increase
proteoglycan; Example 2
  density at the site stained with Safranin O, normal site and growth zone of cartilage, vs control: no difference

## OCCc1ccc(O)c(O)c1 [HT group, 2-(3,4-Dihydroxyphenyl)ethanol]
[1]; Example 1, Mann-Whitney's U test, p<0.05
  cartilage healing / regeneration compared with the control group: promoted significantly
[1]; Example 1, Mann-Whitney's U test, p<0.05, listed as hydroxytyrosol
  cartilage healing / regeneration compared with the control group: promoted the regeneration of cartilage
[1]; [9]
  Degree of healing Distal trochlear sulcus: +++ (Degree of healing is from 80% to 100%); also recorded: + (Degree of healing is from 50% to 60%); also recorded: ++ (Degree of healing is from 60% to 80%)
  Degree of healing Proximal trochlear sulcus: ++ (Degree of healing is from 60% to 80%); also recorded: +++ (Degree of healing is from 80% to 100%); also recorded: + (Degree of healing is from 50% to 60%)
[1]; Example 1, 100 mg/kg of hydroxytyrosol per day in drinking water for 21 days, 100 mg/kg
  Degree of healing Medial trochlear ridge: +++ (Degree of healing is from 80% to 100%); also recorded: ++ (Degree of healing is from 60% to 80%); also recorded: + (Degree of healing is from 50% to 60%)
[1]; Example 1, control group 4.83
  average value of quantified data (degree of healing, points): 7.17
[1]; Example 2, HT p<0.01, GAH p<0.05
  cartilage healing / regeneration compared with the control group: promoted significantly
[1]; Example 2, HT p<0.01, GAH p<0.05, listed as hydroxytyrosol
  cartilage healing / regeneration compared with the control group: promoted the regeneration of cartilage
[1]; [10]
  Degree of healing Distal trochlear sulcus: +++ (Degree of healing is from 80% to 100%)
  Degree of healing Medial trochlear ridge: +++ (Degree of healing is from 80% to 100%)
  Degree of healing Proximal trochlear sulcus: +++ (Degree of healing is from 80% to 100%); also recorded: ++ (Degree of healing is from 60% to 80%)
[1]; [11]
  Degree of healing Distal trochlear sulcus: +++ (Degree of healing is from 80% to 100%)
  Degree of healing Medial trochlear ridge: ++ (Degree of healing is from 60% to 80%); also recorded: +++ (Degree of healing is from 80% to 100%)
  Degree of healing Proximal trochlear sulcus: ++ (Degree of healing is from 60% to 80%); also recorded: +++ (Degree of healing is from 80% to 100%)
[1]; Example 2, control group 5.33
  average value of quantified data (degree of healing, points): 8.17
[2]; Example 1
  muscle weight of the femoral biceps muscle (in words): little decrease
  muscle weight of the lateral vastus muscle (in words): decreased slightly
[2]; Example 1, control 88.84
  Muscle weight ratio Lateral vastus muscle, Mean: 95.93%
[2]; Example 1, control 88.99
  Muscle weight ratio Femoral biceps muscle, Mean: 100.08%
[2]; Example 1, female rabbits
  Muscle weight ratio Femoral biceps muscle: 100.18% and 98.45% and 93.46%
  Muscle weight ratio Lateral vastus muscle: 105.30% and 96.92% and 80.89%
[2]; Example 1, male rabbits
  Muscle weight ratio Femoral biceps muscle: 94.80% and 106.36% and 107.22%
  Muscle weight ratio Lateral vastus muscle: 93.29% and 95.10% and 104.10%
[2]; Example 2
  muscle weight of the femoral biceps muscle (in words): little decrease
  muscle weight of the lateral vastus muscle (in words): little decrease
[2]; Example 2, control 83.80
  Muscle weight ratio Femoral biceps muscle, Mean: 100.59%
[2]; Example 2, control 91.91
  Muscle weight ratio Lateral vastus muscle, Mean: 98.48%
[2]; Example 2, female rabbits
  Muscle weight ratio Femoral biceps muscle: 90.91% and 111.86% and 93.42%
  Muscle weight ratio Lateral vastus muscle: 94.98% and 98.56% and 92.43%
[2]; Example 2, male rabbits
  Muscle weight ratio Femoral biceps muscle: 101.37% and 104.66% and 101.31%
  Muscle weight ratio Lateral vastus muscle: 84.93% and 111.10% and 108.90%
[3]; Example 1
  histopathological findings at the site at which injury was created: matured chondrocytes were found extensively
[3]; Example 2
  histopathological findings at the site at which injury was created: matured chondrocytes were found extensively
proteoglycan; Example 1
  density at the site stained with Safranin O, normal site and growth zone of cartilage, vs control: no difference
proteoglycan; Example 1, site of cartilage at which injury was created
  density at the site stained with Safranin O (proteoglycan), injured site of cartilage, vs control: significant increase
proteoglycan; [8]
  density at the site stained with Safranin O (proteoglycan), injured site of cartilage, vs control: significant increase
proteoglycan; Example 2
  density at the site stained with Safranin O, normal site and growth zone of cartilage, vs control: no difference

From patent publication US20090325891A1, “Cartilage regeneration-promoting agent” (EISAI FOOD & CHEMICAL CO., LTD., priority 2006, published 2009)
